According to publication PMC12606464, “Investigating NFE2L1 activators for targeted protein aggregate clearance: a follow-up study” (RSC Medicinal Chemistry, 2025):

Test system: proteasome subunit gene expression (PSMC4, PSMB7, PSMD12)
Assay: RT-qPCR of proteasome genes in NFE2L1/NFE2L2-knockdown HEK293 cells
Type: cell-based, human
Details: for NFE2L1 mRNA, mean diff between siRNA treatments, log2 / NFE2L2 mRNA, mean diff between siRNA treatments, log2 / PSMB7 mRNA, mean diff between siRNA treatments, log2 / PSMD12 mRNA, mean diff between siRNA treatments, log2: RUN89-treated
Experimental: Fig. 1 (A) Targeted library screening of RUN compounds using the 3×PSMA4-ARE-LUC dual reporter assay in HEK293 cells. Cells were exposed to RUN compounds (5 μM) for 16 hours, and luciferase activity was measured. Data are presented as the mean ± SD from three independent experiments (n = 3). Results are shown as a fold change in luminescence relative to DMSO-treated cells. Selected hit compounds are highlighted in distinct colours. (B) RUN-89 specifically activates the NFE2L1 pathway. The DDI2 knockout (KO) and parental (WT) HCT116 cells were transfected with the 3×PSMA4-ARE-LUC reporter and treated with 0.5 μM bortezomib (BTZ) and 5 μM RUN-89 for 16 hours. Data are presented as the Geomean ± GeoSD of three independent experiments (n = 3). Statistical analysis was performed on log2-transformed values using two-way repeated-measures ANOVA followed by Šídak's multiple comparison test. (C) RUN-89 selectively triggers downstream signaling events associated with NFE2L1 gene expression. HEK293 cells were transfected with lipid nanoparticles (LNPs) carrying siRNAs targeting NFE2L1 or NFE2L2. LNPs formulated with non-targeting siRNA served as a negative control. Following 24 hours of incubation, cells were treated with 7.5 μM RUN-89 or DMSO (vehicle) for an additional 16 hours. Expression of the proteasomal subunit gene PSMC4 was then quantified by RT-qPCR. Data are shown as the Geomean ± GeoSD from three independent biological replicates (n = 3). Log2-transformed data were analyzed using two-way repeated-measures ANOVA with the Geisser–Greenhouse correction, followed by Tukey's multiple comparison test with individual variances computed for each comparison. Additional results for NFE2L1, NFE2L2, PSMB7, and PSMD12 are presented in SI Fig. S10.
To further confirm that RUN-89 acts through NFE2L1-dependent signalling, we investigated the effect of selective knockdown of NFE2L1 and NFE2L2 on the induction of proteasomal genes. HEK293 cells (from ATCC CCL-247 (RRID:CVCL_0291)) were transfected with lipid nanoparticles (LNPs) carrying siRNAs targeting either NFE2L1 or NFE2L2, while non-targeting siRNA was used as a control. After treatment with RUN-89, transcript levels of several proteasome subunit genes were analyzed by RT-qPCR.
Figure S10: Effects of RUN-89 on NFE2L1- and NFE2L2-associated target genes following […]
HEK293 cells were transfected with lipid nanoparticles (LNPs) containing siRNAs against NFE2L1, NFE2L2, or a non-targeting control siRNA. After 24 hours, cells were treated with 7.5 μM RUN-89 or DMSO (vehicle) for an additional 16 h, and transcript levels of NFE2L1, NFE2L2, PSMB4, PSMB7, and PSMD12 were quantified by RT -qPCR. Data are presented as mean ± SD from three independent biological replicates (n = 3). Log₂ -transformed data were analyzed by two -way repeated-measures ANOVA with Geisser –Greenhouse correction, followed by Tukey’s multiple compa rison test with individual variances computed for each comparison.
2.16 Analysis of proteasome genes expression in NFE2L1/NFE2L2-
The corresponding HEK293 cells were seeded into 24-well culture plates (120,000 cells/well) and allowed to adhere overnight under standard culture conditions. On the following day, cells were transfected with siRNAs targeting NFE2L1, NFE2L2, or a non-targeting negative control siRNA (Table S2). Transfections were performed using a lipid nanoparticle (LNP) delivery system assembled as previously described,(7) with a final siRNA concentration of ~0.2 nmol per well. After 24 h of incubation, cells were treated with 7.5 µM […] or DMSO (vehicle control) for 16 h. Total RNA was then extracted, converted into cDNA, and analyzed by RT-qPCR using primers targeting proteasome genes (listed in Section 2.5, Quantitative RT-PCR, Table S1). Expression levels were normalized to RPLP0 mRNA. The […]

[1] = NFE2L1 siRNA vs. NFE2L1 + L2 siRNA
[2] = NFE2L2 siRNA vs. NFE2L1 + L2 siRNA
[3] = Non transfected vs. NFE2L1 + L2 siRNA
[4] = Non transfected vs. NFE2L1 siRNA
[5] = Non transfected vs. NFE2L2 siRNA
[6] = Non transfected vs. Scramble control siRNA
[7] = Scramble control siRNA vs. NFE2L1 + L2 siRNA
[8] = Scramble control siRNA vs. NFE2L1 siRNA
[9] = Scramble control siRNA vs. NFE2L2 siRNA

**Q.** What does the source list for COc1ccc(/C=C2\CC(NC(=O)C3CCCC3)C/C(=C\c3ccc(OC)c(OC)c3)C2=O)cc1OC (centres unmarked) [RUN-89]?
**A.** PSMC4 expression, mean log2, NFE2L1 + L2 siRNA (7.5 μM, 16 h, HEK293): 0.5367; PSMC4 expression, mean log2, NFE2L1 siRNA (7.5 μM, 16 h, HEK293): 0.5329; PSMC4 expression, mean log2, NFE2L2 siRNA (7.5 μM, 16 h, HEK293): 1.12; PSMC4 expression, mean log2, scramble control siRNA (7.5 μM, 16 h, HEK293): 1.335; PSMC4 expression, row mean of log2 values over all siRNA treatments (7.5 μM, 16 h, HEK293): 0.9981; PSMC4 expression, mean log2, non transfected (7.5 μM, 16 h, HEK293, no siRNA): 1.466; Induction of PSMC4 expression upon silencing of NFE2L1, but not NFE2L2 (HEK293, siRNA LNPs): markedly reduced; Mean diff, of log2-transformed values, DMSO vs. RUN89 (NFE2L1 + L2 siRNA): 0.1671; NFE2L1 mRNA, mean diff DMSO vs. RUN89, log2 (NFE2L1 + L2 siRNA): 0.4839; NFE2L1 mRNA, mean of log2-transformed values (NFE2L1 + L2 siRNA): -1.849; NFE2L2 mRNA, mean diff DMSO vs. RUN89, log2 (NFE2L1 + L2 siRNA): 0.1671; PSMB7 mRNA, mean diff DMSO vs. RUN89, log2 (NFE2L1 + L2 siRNA): -0.04295; PSMB7 mRNA, mean of log2-transformed values (NFE2L1 + L2 siRNA): -0.005215; PSMD12 mRNA, mean diff DMSO vs. RUN89, log2 (NFE2L1 + L2 siRNA): -1.247; PSMD12 mRNA, mean of log2-transformed values (NFE2L1 + L2 siRNA): 1.4; Mean diff, of log2-transformed values, DMSO vs. RUN89 (NFE2L1 siRNA): 0.3261; NFE2L1 mRNA, mean diff DMSO vs. RUN89, log2 (NFE2L1 siRNA): 0.5812; NFE2L1 mRNA, mean of log2-transformed values (NFE2L1 siRNA): -2.192; NFE2L2 mRNA, mean diff DMSO vs. RUN89, log2 (NFE2L1 siRNA): 0.3261; PSMB7 mRNA, mean diff DMSO vs. RUN89, log2 (NFE2L1 siRNA): 0.02314; PSMB7 mRNA, mean of log2-transformed values (NFE2L1 siRNA): -0.07162; PSMD12 mRNA, mean diff DMSO vs. RUN89, log2 (NFE2L1 siRNA): -1.239; PSMD12 mRNA, mean of log2-transformed values (NFE2L1 siRNA): 1.413; Mean diff, of log2-transformed values, DMSO vs. RUN89 (NFE2L2 siRNA): 0.07457; NFE2L1 mRNA, mean diff DMSO vs. RUN89, log2 (NFE2L2 siRNA): -0.06055; NFE2L1 mRNA, mean of log2-transformed values (NFE2L2 siRNA): -0.3257; NFE2L2 mRNA, mean diff DMSO vs. RUN89, log2 (NFE2L2 siRNA): 0.07457; PSMB7 mRNA, mean diff DMSO vs. RUN89, log2 (NFE2L2 siRNA): -0.4898; PSMB7 mRNA, mean of log2-transformed values (NFE2L2 siRNA): 0.4898; PSMD12 mRNA, mean diff DMSO vs. RUN89, log2 (NFE2L2 siRNA): -1.678; PSMD12 mRNA, mean of log2-transformed values (NFE2L2 siRNA): 1.979; Mean diff, of log2-transformed values, DMSO vs. RUN89 (Non transfected): -0.3265; NFE2L2 mRNA, mean diff DMSO vs. RUN89, log2 (Non transfected): -0.3265; PSMB7 mRNA, mean diff DMSO vs. RUN89, log2 (Non transfected): -0.7476; PSMB7 mRNA, mean of log2-transformed values (Non transfected): 0.7599; PSMD12 mRNA, mean diff DMSO vs. RUN89, log2 (Non transfected): -1.909; PSMD12 mRNA, mean of log2-transformed values (Non transfected): 2.076; NFE2L1 mRNA, mean diff between siRNA treatments, log2 [1]: 0.3437; NFE2L2 mRNA, mean diff between siRNA treatments, log2 [1]: 2.749; PSMB7 mRNA, mean diff between siRNA treatments, log2 [1]: -0.0664; PSMD12 mRNA, mean diff between siRNA treatments, log2 [1]: 0.01218; NFE2L1 mRNA, mean diff between siRNA treatments, log2 (NFE2L1 siRNA vs. NFE2L2 siRNA): 1.867; NFE2L2 mRNA, mean diff between siRNA treatments, log2 (NFE2L1 siRNA vs. NFE2L2 siRNA): 2.85; PSMB7 mRNA, mean diff between siRNA treatments, log2 (NFE2L1 siRNA vs. NFE2L2 siRNA): -0.5614; PSMD12 mRNA, mean diff between siRNA treatments, log2 (NFE2L1 siRNA vs. NFE2L2 siRNA): -0.5664; NFE2L1 mRNA, mean diff between siRNA treatments, log2 [2]: -1.523; NFE2L2 mRNA, mean diff between siRNA treatments, log2 [2]: -0.1013; PSMB7 mRNA, mean diff between siRNA treatments, log2 [2]: 0.495; PSMD12 mRNA, mean diff between siRNA treatments, log2 [2]: 0.5786; NFE2L1 mRNA, mean diff between siRNA treatments, log2 [3]: -2.639; NFE2L2 mRNA, mean diff between siRNA treatments, log2 [3]: 3.437; PSMB7 mRNA, mean diff between siRNA treatments, log2 [3]: 0.7651; PSMD12 mRNA, mean diff between siRNA treatments, log2 [3]: 0.6755; NFE2L1 mRNA, mean diff between siRNA treatments, log2 [4]: -2.982; NFE2L2 mRNA, mean diff between siRNA treatments, log2 [4]: 0.6883; PSMB7 mRNA, mean diff between siRNA treatments, log2 [4]: 0.8315; PSMD12 mRNA, mean diff between siRNA treatments, log2 [4]: 0.6633; NFE2L1 mRNA, mean diff between siRNA treatments, log2 [5]: -1.115; NFE2L2 mRNA, mean diff between siRNA treatments, log2 [5]: 3.539; PSMB7 mRNA, mean diff between siRNA treatments, log2 [5]: 0.27; PSMD12 mRNA, mean diff between siRNA treatments, log2 [5]: 0.09696; NFE2L2 mRNA, mean diff between siRNA treatments, log2 [6]: -0.01225; PSMB7 mRNA, mean diff between siRNA treatments, log2 [6]: 0.1431; PSMD12 mRNA, mean diff between siRNA treatments, log2 [6]: -0.01734; NFE2L1 mRNA, mean diff between siRNA treatments, log2 [7]: -2.465; NFE2L2 mRNA, mean diff between siRNA treatments, log2 [7]: 3.45; PSMB7 mRNA, mean diff between siRNA treatments, log2 [7]: 0.622; PSMD12 mRNA, mean diff between siRNA treatments, log2 [7]: 0.6929; NFE2L1 mRNA, mean diff between siRNA treatments, log2 [8]: -2.808; NFE2L2 mRNA, mean diff between siRNA treatments, log2 [8]: 0.7005; PSMB7 mRNA, mean diff between siRNA treatments, log2 [8]: 0.6884; PSMD12 mRNA, mean diff between siRNA treatments, log2 [8]: 0.6807; NFE2L1 mRNA, mean diff between siRNA treatments, log2 [9]: -0.9417; NFE2L2 mRNA, mean diff between siRNA treatments, log2 [9]: 3.551; PSMB7 mRNA, mean diff between siRNA treatments, log2 [9]: 0.127; PSMD12 mRNA, mean diff between siRNA treatments, log2 [9]: 0.1143; Mean diff, of log2-transformed values, DMSO vs. RUN89 (Scramble control siRNA): -0.3474; NFE2L1 mRNA, mean diff DMSO vs. RUN89, log2 (Scramble control siRNA): 0.6041; NFE2L1 mRNA, mean of log2-transformed values (Scramble control siRNA): 0.616; NFE2L2 mRNA, mean diff DMSO vs. RUN89, log2 (Scramble control siRNA): -0.3474; PSMB7 mRNA, mean diff DMSO vs. RUN89, log2 (Scramble control siRNA): -0.6138; PSMB7 mRNA, mean of log2-transformed values (Scramble control siRNA): 0.6168; PSMD12 mRNA, mean diff DMSO vs. RUN89, log2 (Scramble control siRNA): -2.092; PSMD12 mRNA, mean of log2-transformed values (Scramble control siRNA): 2.093; NFE2L1 mRNA, mean of log2-transformed values (row mean) (mean over all siRNA treatments): -0.5922; NFE2L2 mRNA, mean of log2-transformed values (row mean) (mean over all siRNA treatments): -1.194; PSMB7 mRNA, mean of log2-transformed values (row mean) (mean over all siRNA treatments): 0.3579; PSMD12 mRNA, mean of log2-transformed values (row mean) (mean over all siRNA treatments): 1.792; NFE2L1 mRNA, difference between means (DMSO - RUN89), log2 (over all siRNA treatments): -0.4084; NFE2L2 mRNA, difference between means (DMSO - RUN89), log2 (over all siRNA treatments): -0.02122; PSMB7 mRNA, difference between means (DMSO - RUN89), log2 (over all siRNA treatments): -0.3742; PSMD12 mRNA, difference between means (DMSO - RUN89), log2 (over all siRNA treatments): -1.633
